Measured values from patent US20220142967A1, “Methods and Compositions for the Treatment of Multiple Sclerosis” (SYMBIONYX PHARMACEUTICALS INC, priority 2018, published 2022).
Structures can show the parent of a compound that is named as a salt.

Key:
[1] = system: NRF2 (NF-E2-related factor 2) transcription factor; test: Cignal ARE Reporter Assay, NRF2-mediated luciferase gene expression in HEK293 cells; assay type: cell-based; settings: HEK293, 24 h
Protocol: 2017 December; 23(14):1875-1883. doi: 10.1177/1352458517690617. Epub 2017 Feb.
The experiments were performed using HEK293 cells (Sigma, St. Louis, Mo.; cat. #85120602) seeded at 50,000 per well in a 96 well white opaque-wall tissue culture plates. Cells were transfected by mixing Cignal Reporter Assay firefly/renilla luciferase constructs (cat. # CCS-5020L; Qiagen) with Attractene Transfection Reagent (Qiagen) in Opti-MEM (ThermoFisher Scientific, Waltham, Mass.) supplemented with 1% MEM Non-essential amino acid solution without L-glutamine (Sigma; cat. #M7145). After medium change test materials were added and their effect on NRF2 induction was quantified 24 h later with the Dual-Luciferase Reporter Assay System (cat. #E1960; Promega, Madison, Wis.).
The ARE (antioxidant response element) reporter is a mixture of a Nrf2-responsive luciferase construct encoding the firefly luciferase reporter gene under the control of a minimal (m)CMV promoter and tandem repeats of the ARE transcriptional response element, and a constitutively expressing Renilla element (40:1), which acts as an internal control for normalizing transfection efficiencies and monitoring cell viability. […] Signal quantification was obtained with ThermoFisher Scientific Luminoskan Ascent Microplate Luminometer.

[2] = molecular target: T1, carboxylesterase 2 (CES2) (Homo sapiens, UniProt O00748); test: Carboxylesterase hydrolysis IDMF v DMF; assay type: in vitro ADME; settings: for remaining parent compound: 1 mg/ml CES2, 37° C., pH 7.4
T1 sequence (O00748 27-559): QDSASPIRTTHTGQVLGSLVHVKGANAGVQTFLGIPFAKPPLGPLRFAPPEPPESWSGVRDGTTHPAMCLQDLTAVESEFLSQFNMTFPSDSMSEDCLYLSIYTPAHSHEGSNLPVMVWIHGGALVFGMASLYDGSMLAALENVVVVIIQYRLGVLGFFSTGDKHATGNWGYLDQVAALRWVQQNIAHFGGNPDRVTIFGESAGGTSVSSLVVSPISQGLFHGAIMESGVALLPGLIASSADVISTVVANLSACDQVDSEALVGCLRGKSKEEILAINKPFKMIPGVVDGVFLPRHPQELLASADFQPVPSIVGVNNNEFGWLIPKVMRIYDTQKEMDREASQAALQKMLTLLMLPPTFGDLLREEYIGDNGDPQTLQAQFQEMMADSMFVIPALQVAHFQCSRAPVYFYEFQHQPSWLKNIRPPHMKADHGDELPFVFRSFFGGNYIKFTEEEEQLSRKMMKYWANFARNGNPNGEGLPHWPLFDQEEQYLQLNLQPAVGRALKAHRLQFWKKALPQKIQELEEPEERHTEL
Protocol: IDMF and DMF were subjected to carboxylesterase hydrolysis. […] 1 mg/ml carboxylesterase 2 (CES2) was added to each solution and the solutions incubated at 37° C. for the time periods set forth in Table 5. […] Isosorbide was quantified using CAD. Mobile phase used for the study: 0.1% Formic acid in water; B: Methanol. Column: Luna C18 4.6 mm×100 mm, 5 u (Phenomenex). Flow rate: 1.0 ml/min.

human fetal astrocytes = test: A1 v A2 marker activation, RNA-seq of H2O2-stimulated astrocytes; assay type: cell-based; settings: 2.5 μM, 24 hrs, H2O2 (50 μM) stimulated
Protocol: The treated cells were stimulated with H2O2 (50 μM) for 20 min and the RNA extracted 1 day later and sequenced using the Illumina HiSeq 2000 with an average of 39.3 million reads per sample. Reads were mapped to the GHch38/hg38 genome. 13,968 protein-coding genes had detectable expression on average among the 6 samples. Differentially expressed genes (DEGs) were identified using negative binomial models with FDR threshold of <0.10 and fold change (FC) criteria (FC>1.30 or FC<0.77). Gene set enrichment testing was performed using public database annotations. Motif enrichment with respect to DEG up-stream regions was characterized using semiparametric generalized additive logistics models. The overlap between the identified DEGs and MS-associated genes, i.e., genes from MS patients and genes linked to inflammatory (A1) and ischemic (A2) astrogliosis.

[3] = system: human fetal astrocytes derived from cerebral cortex; test: Transcriptome analysis of astrocyte cultures treated with MMF, DRF, IDMF; assay type: cell-based; settings: 2.5 μM, 24 hours
Protocol: Experiments were performed using human fetal astrocytes derived from cerebral cortex (cat. no. 882A-05f; Cell Applications, Sant Diego, Calif.). Cells were grown to subconfluence in human astrocyte growth medium (cat. no. 820-500, Cell Applications). […] Test materials were added to subconfluent cultures at a concentration of 2.5 μM and cells were incubated for 24 hours.
RNA was extracted following the incubation period using the RNAeasy Mini Plus kit (Qiagen, Hilden, Germany) and robotic Qiacube Connect station (Qiagen). Samples were shipped on dry ice to the Thermo Fisher Microarray Research Services Laboratory (Santa Clara, Calif.) for transcriptome analysis. RNA quality analysis was performed upon sample receipt using the NanoDrop Lite (Thermo Fisher Scientific, Waltham, Mass.). All samples had 260/280 nm absorbance ratios higher than 1.90, consistent with high-purity RNA.
In follow-up to the study of Example, 1 above, genes associated with multiple sclerosis were identified based upon seven established database sources: (1) the NHGRI-EBI genome-wide association (GWA) study catalogue, (2) the Disease Ontology (DO) database, (3) the DisGeNET (curated) database, (4) the DisGeNET (BeFree), (5) MalaCards, (6) the Medical Subject Heading (MESH) database and the KEGG Database. The impact on gene expression of IDMF, MMF and DRF on the key overlapping MS-associated genes was assessed.
The specific data for four of the key NFR2 target genes associated with antioxidant and anti-inflammatory effects is presented in FIGS. 7(A) thru 7(D).
Both TNFAIP3 and NFKBIA encode inhibitory proteins that suppress the NF-KB pathway. Specifically, TNFAIP3 encodes a deubiquitinating enzyme previously linked to MS by genetic association studies: a TNFAIP3 protein abundance is increased in white matter and cortical lesion astrocytes from MS patient brains. Similarly, NFKBIA (IκBα) encodes an NF-KB inhibitor for which promoter polymorphisms have been associated with MS and abundance of this protein is prominent in macrophage nuclei of MS plaques undergoing active demyelination. ICAM1 encodes an endothelial adhesion molecule that promotes leucocyte extravasation and is associated with the initiation and progression of inflammation as well as the targeting of inflammation in the central nervous system (CNS). FIGS. 9(A), 9(B) and 9(C) show the specific data for these three genes.
Genetic variants of IFR has been associated with MS and some MS treatments such as glatiramer acetate block cytokine-stimulated IRF1 up-regulation. An assessment was undertaken to assess the relative impact of fumarate esters, namely MMF, DRF and IDMF on IFR motif enrichment.

SMILES: COC(=O)/C=C/C(=O)O[C@H]1CO[C@H]2[C@@H]1OC[C@H]2OC(=O)/C=C/C(=O)OC [IDMF, isosorbide di-(methyl fumarate)]
- Fold Change v. water control (1), NRF2-mediated luciferase gene expression ([1]; 1 μg/ml): 2.78 fold
- Fold Change v. water control (1), NRF2-mediated luciferase gene expression ([1]; 10 μg/ml): 4.61 fold
- remaining parent compound ([2]; 0 minutes): 1.027 mM
- remaining parent compound ([2]; 15 minutes): 0.072 mM
- time by which essentially all is hydrolyzed ([2]; CES2, 37° C.): ≤ 15 min
- ICAM1 expression (human fetal astrocytes): downregulate
- expression of genes linked to A2-polarization (human fetal astrocytes): tended to increase the expression
- expression of genes linked to pan-reactive gliosis (human fetal astrocytes): decreasing
- IRF1 expression [3]: marked downregulation
- effect on NRF2 target genes compared with MMF and DRF [3]: much more pronounced effect
- effect on TNFAIP3, NFKBIA and ICAM1 expression [3]: marked downregulation
- expression of heme oxygenase-1 (HMOX1) [3]: marked increase in expression
